Patent publication US9914760B2, “Methods of identifying, isolating and using odorant and aroma receptors” (Firmenich SA, priority 2013, dated 2018)

How the values were obtained:
Assay in all cases: cell-based calcium-flux assay, HEK293T with Gα15
[1] = molecular target: T1, OR11H4 (Homo sapiens, UniProt Q8NGC9); conditions: dose-response curves FIG. 6D-J
T1 construct: expressed in transfected cells
T1 sequence (Q8NGC9 1-324): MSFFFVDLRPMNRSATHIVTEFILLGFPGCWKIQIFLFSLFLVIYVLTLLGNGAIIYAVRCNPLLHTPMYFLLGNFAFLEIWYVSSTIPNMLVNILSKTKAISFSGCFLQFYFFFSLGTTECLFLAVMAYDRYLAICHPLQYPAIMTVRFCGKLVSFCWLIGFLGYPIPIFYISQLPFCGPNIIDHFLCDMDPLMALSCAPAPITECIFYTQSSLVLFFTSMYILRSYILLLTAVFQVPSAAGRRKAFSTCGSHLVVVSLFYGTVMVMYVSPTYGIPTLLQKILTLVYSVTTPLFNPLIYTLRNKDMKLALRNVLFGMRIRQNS
Text: (§1) The activity of candidate human indole and skatole malodors receptors OR52N2 (SEQ ID NO: 11 and SEQ ID NO: 12), OR11G2 (SEQ ID NO: 13 and SEQ ID NO: 14, OR5AC2 (SEQ ID NO: 75 and SEQ ID NO: 76), OR4C15 (SEQ ID NO: 79 and SEQ ID NO: 80), OR8S1 (SEQ ID NO: 83 and SEQ ID NO: 84), OR11H6 (SEQ ID NO: 15 and SEQ ID NO: 16) and OR11H4 (SEQ ID NO: 49 and SEQ ID NO: 50) and candidate mouse indole and skatole malodors receptors Olfr665 (SEQ ID NO: 9 and SEQ ID NO 10) and Olfr740 (SEQ ID NO: 1 and SEQ ID NO 2) were confirmed in cell-based calcium-flux assays (FIGS. 6A to 6J). Cells stably co-expressing Rho-tagged human OR52N2 (FIG. 6A, B) or OR11G2 (FIG. 6C) and Gα15 (SEQ ID NO: 25) were exposed to increasing concentrations of skatole or indole. FIG. 6B is a repeat experiment showing similar activity of OR52N2 with indole and skatole. Odorant-induced OR52N2 or OR11G2 activity was detected by measuring the maximum Calcium 5 dye (Molecular Devices) fluorescence change following odorant exposure. Activity is defined as the baseline corrected Relative Fluorescent Units (RFU) ratios normalized to the highest RFU in the experiment in FIG. 6A. […] A cell line lacking a receptor, for example hOR52N2, was used as a control for non-specific activity at high concentrations (‘Indole control’ and ‘Skatole control’). The human receptor OR52N2 (SEQ ID NO: 11 and SEQ ID NO: 12) was identified because of its sequence similarity to mouse Olfr665 (SEQ ID NO: 10), an indole/skatole receptor isolated from olfactory neurons responding to both indole and skatole. The human receptor OR11G2 (SEQ ID NO: 13 and SEQ ID NO: 14) was identified because of its sequence similarity to mouse Olfr740 (SEQ ID NO: 2), an indole/skatole receptor isolated from olfactory neurons responding to both indole and skatole. The receptors were modified with the Rho sequence and stably expressed in HEK 293T cells. Further examples show indole and skatole dose-response curves for human receptors OR5AC2, OR4C15, OR8S1, OR11H6, OR11H4 and mouse receptors Olfr665 and Olfr740 (FIG. 6D-J). The human receptor OR5AC2 (SEQ ID NO: 75 and SEQ ID NO: 76) was identified because of its sequence similarity to mouse Olfr207 (SEQ ID NO: 78), a receptor isolated from olfactory neurons responding to both indole and skatole. The human receptor OR4C15 (SEQ ID NO: 79 and SEQ ID NO: 80) was identified because of its sequence similarity to mouse Olfr211 (SEQ ID NO: 82), a receptor isolated from olfactory neurons responding to both indole and skatole. The human receptor OR8S1 (SEQ ID NO: 83 and SEQ ID NO: 84) was identified because of its sequence similarity to mouse Olfr257 (SEQ ID NO: 86), a receptor isolated from olfactory neurons responding to both indole and skatole. The human receptor OR11H6 (SEQ ID NO: 15 and SEQ ID NO: 16) was identified because of its sequence similarity to mouse Olfr745 (SEQ ID NO: 8), a receptor isolated from olfactory neurons responding to both indole and skatole. The human receptor OR11H4 (SEQ ID NO: 49 and SEQ ID NO: 50) was identified because of its sequence similarity to mouse Olfr746 (SEQ ID NO: 38), a receptor isolated from olfactory neurons responding to both indole and skatole. The mouse receptor Olfr665 (SEQ ID NO: 9 and SEQ ID NO: 10) was identified directly from NGS data from isolated olfactory neurons responding to both indole and skatole. The mouse receptor Olfr740 (SEQ ID NO: 1 and SEQ ID NO: 2) was identified directly from NGS data from isolated olfactory neurons responding to both indole and skatole. Co-expression of the human G alpha subunit Gα15 activates the Gq transduction pathway that leads to an internal Ca2+ increase upon binding to the appropriate ligand.

[2] = molecular target: T2, OR52N2 (Homo sapiens, UniProt Q8NGI0); conditions: increasing concentrations; FIG. 6A, B
T2 construct: expressed in transfected cells
T2 sequence (Q8NGI0 1-321): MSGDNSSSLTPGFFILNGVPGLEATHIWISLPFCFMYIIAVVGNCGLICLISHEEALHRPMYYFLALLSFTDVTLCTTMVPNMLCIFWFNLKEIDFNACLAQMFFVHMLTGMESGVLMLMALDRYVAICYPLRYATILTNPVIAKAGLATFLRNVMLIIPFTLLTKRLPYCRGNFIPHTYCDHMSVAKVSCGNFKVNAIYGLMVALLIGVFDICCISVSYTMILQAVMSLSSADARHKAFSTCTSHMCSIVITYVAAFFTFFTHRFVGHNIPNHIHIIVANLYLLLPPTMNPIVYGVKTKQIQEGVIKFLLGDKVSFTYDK
Text: as §1

[3] = molecular target: T3, OR4C15 (Homo sapiens, UniProt Q8NGM1); conditions: dose-response curves FIG. 6D-J
T3 construct: expressed in transfected cells
T3 sequence (Q8NGM1 with tags, fused parts or gaps): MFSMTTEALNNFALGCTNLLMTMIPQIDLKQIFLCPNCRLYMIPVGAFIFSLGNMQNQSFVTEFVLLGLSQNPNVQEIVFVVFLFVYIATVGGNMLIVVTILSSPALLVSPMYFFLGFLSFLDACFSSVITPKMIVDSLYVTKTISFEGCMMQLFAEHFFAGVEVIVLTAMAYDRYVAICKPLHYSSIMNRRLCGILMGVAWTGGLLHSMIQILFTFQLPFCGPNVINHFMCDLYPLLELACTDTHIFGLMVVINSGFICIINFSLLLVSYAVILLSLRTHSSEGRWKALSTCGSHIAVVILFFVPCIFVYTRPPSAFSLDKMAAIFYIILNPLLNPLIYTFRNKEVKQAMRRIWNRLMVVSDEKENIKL
Text: as §1

[4] = molecular target: T4, OR8S1 (Homo sapiens, UniProt Q8NH09); conditions: dose-response curves FIG. 6D-J
T4 construct: expressed in transfected cells
T4 sequence (Q8NH09 1-359): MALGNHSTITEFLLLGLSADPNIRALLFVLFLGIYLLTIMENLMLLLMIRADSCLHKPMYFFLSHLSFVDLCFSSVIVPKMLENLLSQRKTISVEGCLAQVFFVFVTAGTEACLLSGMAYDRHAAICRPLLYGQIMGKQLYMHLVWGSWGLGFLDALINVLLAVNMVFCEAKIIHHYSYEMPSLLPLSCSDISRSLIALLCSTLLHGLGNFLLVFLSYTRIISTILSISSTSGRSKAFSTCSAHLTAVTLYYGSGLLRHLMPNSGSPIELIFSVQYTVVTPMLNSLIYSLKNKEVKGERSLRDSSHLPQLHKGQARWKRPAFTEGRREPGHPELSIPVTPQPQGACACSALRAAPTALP
Text: as §1

SMILES | receptor response in vitro [1] | receptor activity (Calcium 5 dye fluorescence change) [2] | receptor response in vitro [3] | receptor response in vitro [4]
c1ccc2[nH]ccc2c1 [indole] | responded | dose-dependent increase of receptor activity | responded | responded
Cc1c[nH]c2ccccc12 [skatole, 3-methyl indole] | responded | dose-dependent increase of receptor activity | responded | responded
